The source of these data is US20040006061A1, “Alkoxybenzylamine” (priority 2001, published 2004).

Test [1] concerns Staphylococcus hominis DSM 20328. Nature of the test: Determination of the Minimum Inhibitory Concentration (MIC value) in microtitre plates, Staphylococcus hominis. It is filed as cell-based. As to conditions: Staphylococcus hominis DSM 20328, CASO broth, 48 hours at 37° C., MIC = ≦20% growth (optical density at 620 nm); for MIC: Staphylococcus hominis, DSM20328, 48 h, read-out: MIC [μg/ml] SH. As to the method:
(§1) Determination of the Minimum Inhibitory Concentration (MIC Value) in Microtitre Plates
Casein-soybean flour-peptone broth for preparation of pre-cultures of test bacteria and yeast.
Staphylococcus hominis DSM 20328 […]
(§2) The test substances are pre-dissolved in dimethyl sulfoxide (DMSO) and tested in a dilution series of 1:2.
(§3) The bacteria are cultured overnight in CASO broth and washed off using 10 ml of 0.85% sodium chloride solution (+0.1% Triton X-100).
(§4) All the test organisms are adjusted to an organism count of 1-5×10^6 CFU/ml using 0.85% sodium chloride solution.
(§5) The test substances are pre-pipetted into microtitre plates in amounts of 8 μl per well.
(§6) Pre-diluted test organism suspensions are diluted 1:100 in CASO broth.
(§7) The test batches are incubated for 48 hours at 37° C.
(§8) After incubation, the growth is determined on the basis of the turbidity of the test batches (optical density) at 620 nm in a microplate reader.
(§9) The minimum inhibitory concentration (MIC value) is the concentration of substance at which there is found (compared to the growth of the control) an appreciable inhibition of growth (≦20% growth) of the test organisms.
(§10) One microtitre plate is used for each test organism and substance concentration.
(§11) All the substances are tested in duplicate.

In test [2] the test system is Escherichia coli NCTC 8196. Nature of the test: Determination of the Minimum Inhibitory Concentration (MIC value) in microtitre plates, Escherichia coli. It is filed as cell-based. As to conditions: Escherichia coli, NCTC8196, 48 h, Escherichia coli NCTC 8196; CASO broth, 48 hours at 37° C.; MIC = ≦20% growth (optical density at 620 nm); read-out: MIC [μg/ml] EC. The procedure:
as §1
Casein-soybean flour-peptone broth for preparation of pre-cultures of test bacteria and yeast. […]
Escherichia coli NCTC 8196
as §2, §3, §4, §5, §6, §7, §8, §9, §10, §11

Consider `CCCCCCCCCCCCOc1ccc(CN2CCCC2)cc1` [Compound of formula (82)], for which the “MIC [μg/ml] SH” value in test [1] (listed as (82)) is 7.5 µg/mL. Also, the MIC in test [2] came out at 60 µg/mL.
As to `CCCCCCCCCCCCOc1ccc(CN(C)CCCCCCCCCCCC)cc1OC` [Compound of formula (19)], the MIC in test [1] and in test [2] was over 120 µg/mL each time.
As to `CCCCCCCCCCCCOc1ccc(CN2CCCCCC2)cc1` [Compound of formula (74)], the MIC is 3.75 µg/mL in test [1] and over 120 µg/mL in test [2].
